According to publication PMC12382614, “(Oxidopyridyl)Porphyrins of Different Lipophilicity: Photophysical Properties, ROS Production and Phototoxicity on Melanoma Cells Under CoCl2-Induced Hypoxia” (Antioxidants, 2025):
Several values for one entry are separate records, joined by “and”; a condition that tells them apart may be missing. Equal entries are not always repeated. Where two headings read alike, the source gives them in different places.

Key:
HIF-1α = experiment: Hypoxia induction with CoCl2, Western blot; type: cell-based, human; settings: A375 cell line, 100 μM CoCl2 in DMEM, 1 and 2 h
Experimental: The cells were seeded into 12-well plates at a concentration of 10^5 cells/well. After the cells had reached full morphology (approx. 48 h), the medium was replaced with fresh medium containing cobalt(II) chloride (CoCl2) at a concentration of 100 μM, followed by incubation at 37 °C for 1 and 2 h. In the control sample, fresh medium without CoCl2 was added. After the incubation, cells were kept on ice and washed with ice-cold 1x PBS. After removing the 1x PBS, the cells were lysed with ice-cold radio-immunoprecipitation assay buffer (RIPA) buffer (50 mM Tris, 150 mM NaCl, 0.5% sodium deoxycholate, and 1% Triton X-100) and then incubated on ice for 30 min. The cells were centrifuged at 14,000 rpm at 4 °C for 10 min to separate the DNA in pellets and proteins in the supernatant. The supernatant was collected, and 4× Laemmli sample buffer (50 mM Tris pH 6.8, 10% glycerol, 2% SDS, 2% 2-mercaptoethanol, and 0.04% bromophenol blue) was added. The samples were heated at 95 °C for 10 min before separation on 10% polyacrylamide gels (SDS-PAGE). All gels were transferred to nitrocellulose membranes using the semi-dry transfer system at 100 V (Trans-Blot Turbo RTA Transfer kit, Bio Rad, Hercules, CA, USA, #1704270). […]

[1] = cited from earlier work; for ΦISC: N-methyl porphyrin analogues; for τT (lifetime of 3PS*): N-methylated counterparts
[2] = system: HDF, MeWo and A375 cell lines; experiment: (Photo)cytotoxicity MTT assay, statements made for all cell lines; type: cell-based, human
Experimental: (§1) For (photo)cytotoxicity assays, stock solutions of porphyrins were prepared in DMSO and dissolved in DMEM to the final concentrations. The porphyrin incubation time was 6h. Irradiation of the cells was with red light (λ = 643 nm) for 30 min (light dose, 3.6 J/cm^2). Nonirradiated cells were used to test the dark toxicity. All measurements were performed in three individual experiments, and the results are shown as the proliferation (%) of the cells and were calculated as IC50 values.
(§2) The cytotoxicity of (oxidopyridyl)porphyrins was assessed by an MTT assay on the HDF, MeWo and A375 cell lines after 6 h of incubation with porphyrins, without irradiation, or after 30 min of irradiation with red light (λ = 643 nm), and under conditions of normoxia or hypoxia. To induce hypoxia, 100 µM of CoCl2 was added at least two hours before the porphyrins. […] Oxygen is also one of the substrates for the activity of prolyl hydroxylases; therefore, in both cases, the result is the blockage of hydroxylation of HIF-1α and, consequently, its increase and stabilisation, which, in the case of CoCl2-induced hypoxia, can be maintained for several hours.

[3] = N-methylated analogue; cited from earlier work
HDF = experiment: Photocytotoxicity, MTT assay; type: cell-based, human; settings: Homo sapiens, HDF, light or radiation study
Experimental: as §1, §2

A375 = experiment: Photocytotoxicity, MTT assay; type: cell-based, human; settings: for IC50: Homo sapiens, A-375, light or radiation study
Experimental: as §1, §2

MeWo = experiment: Photocytotoxicity, MTT assay; type: cell-based, human; settings: for IC50: Homo sapiens, MeWo, light or radiation study
Experimental: as §1, §2

[4] = Fluorescence decay by time-correlated single-photon counting (TC-SPC); type: physicochemical; settings: MeOH, N2, λex 405 nm
Experimental: Time-correlated single-photon counting (TC-SPC) was used to obtain information about fluorescence decays. All measurements were performed on an FS5 Edinburgh Instruments device with a pulsed laser at 405 nm wavelength, which was used for the excitation process (pulse duration 60 ps). Fluorescence signals were monitored at 660 nm over 1023 channels, with a time increment of ≈49 ps/channel. Porphyrins were dissolved in MeOH (HPLC grade), with the absorbance adjusted to 0.1 a.u. at the excitation wavelength, and the solution was degassed with N2 for 15 min before the measurements were taken. All the decays were collected until they reached 3000 counts in the peak channel. A scattering solution, a silica gel suspension in H2O, was used to obtain the instrument response function (IRF). The histograms were analysed using a nonlinear least-squares deconvolution method via the software implemented with the instrument.

[5] = UV-Vis absorption spectra in MeOH; type: physicochemical
Experimental: (§3) The absorption spectra of (oxidopyridyl)porphyrins were recorded in HPLC grade MeOH on a Cary UV 60 (Agilent Technologies, Santa Clara, CA, USA), in a wavelength range of 300–700 nm. The fluorescence spectra in HPLC grade MeOH were recorded on a Cary Eclipse (Agilent Technologies) in a wavelength range of 500–800 nm after excitation at the Soret band wavelength (λ ~ 420 nm). The slits of the spectrometer were set to a bandpass of 5 nm for the excitation and 5 nm for the emission. To calculate the fluorescence quantum yields, the measurements were conducted on an FS5 Edinburgh Instruments spectrometer. Prior to taking the measurements, the solutions were purged with high-purity N2 for at least 15 min. The absorbance of the solutions was set to A < 0.1 at 405 nm and 550 nm, which settings were used for the excitation process. Emission was recorded from 550 to 800 nm, with slits set to the bandpass corresponding to 2 nm for the excitation, and 3 nm for the emission. Fluorescence quantum yield (ΦFL) was calculated in comparison to the tetraphenylporphyrin (TPP; ΦFL = 0.11 [23]) as a standard, according to Equation (S1) and following an equation previously described elsewhere.

[6] = Laser flash photolysis (LFP), triplet excited state properties; type: physicochemical; settings: MeOH
Experimental: Laser flash photolysis (LFP) was performed using an LP980 transient absorption spectrometer (Edinburgh Instruments) equipped with a continuous beam (or pulse mode) Xenon lamp passing through the sample. A nanosecond Nd:YAG laser (Quantel, Q-smart 450, 5 ns pulse duration, 10 Hz, excitation wavelength 355 nm) was then used to excite the sample perpendicular to the lamp beam. The laser beam energy was adjusted to below 5 mJ. The ground state absorbance of the porphyrins in MeOH was adjusted to 0.20–0.25 at 355 nm (the laser excitation wavelength) and the solutions were purged with high-purity N2 for at least 15 min prior to taking the measurements. The samples were prepared for kq determination in an air atmosphere that was N2-purged for 15 min and O2-purged for 15 min before the measurements were taken. The ground state absorption spectra of the samples were also recorded after purging the sample with N2 or O2, and after transient absorption (TAS) measurements were taken to track the differences in every step of the measurement process to ensure that no photoproducts were formed. All measurements were performed at 25 °C in 1 cm quartz cuvettes. Laser flash photolysis was used to measure the kinetics of triplet state depopulation (τT) and triplet-triplet absorption spectra, and to calculate the intersystem crossing quantum yield (ΦISC) and quenching rate constants of triplet excited states by molecular oxygen (kq). To calculate ΦISC, the first step was the calculation of the molar absorption coefficient of the triplet state using the singlet depletion method, completing the first step according to Equation (S2). The ΦISC values were estimated by using a comparative method with TPP (ΦISC = 0.87 in toluene) as the standard. The ΦISC was calculated according to Equation (S3). Triplet excited state lifetimes were determined by fitting the triplet decays to the equation for the mixed first- and second-order decay, as previously described, and the quenching rate constant of a triplet excited state by molecular oxygen was calculated using the Stern–Volmer equation (Equation (S4)).

[7] = Fluorescence spectra and fluorescence quantum yield in MeOH; type: physicochemical
Experimental: as §3

[8] = red light 643 nm 30 min, CoCl2-induced hypoxia
[9] = red light 643 nm 30 min, normoxia

Q: Which “HIF-1α protein level (Western blot, normalised to β-actin)” value (HIF-1α) does the source give for [Cl-].[Cl-].[Co+2] [CoCl2, Cobalt(II) chloride] here?
A: accumulation of HIF-1α

Q: For CCCCCCCCCCCCCCCCCC(=O)Nc1ccc(-c2c3nc(c(-c4ccc[n+](C)c4)c4ccc([nH]4)c(-c4ccc[n+](C)c4)c4nc(c(-c5ccc[n+](C)c5)c5ccc2[nH]5)C=C4)C=C3)cc1.[Cl-].[Cl-].[Cl-] [TMPyP3-C17H35, 5-(4-Octadecanamidophenyl)-10,15,20-Tris(N-Methylpyridinium-3-Yl)Porphyrin Trichloride], which ΦISC [1] is on record?
A: 0.38

Q: And the “τT (lifetime of 3PS*)” value [1]?
A: 0.74 ms

Q: And the IC50 ([2]; Homo sapiens, light or radiation study, read-out: IC50 in all the tested cells)?
A: ≤ 1000 nM

Q: What about the “ΦFL (fluorescence quantum yield)” value [3] of the same molecule?
A: 0.105

Q: What about the IC50 (HDF; read-out: IC50 HDF CoCl2) of the same molecule?
A: 460 ± 140 nM

Q: And the IC50 (HDF; read-out: IC50 HDF No CoCl2)?
A: 330 ± 30 nM

Q: And the IC50 (A375; read-out: IC50 A375 CoCl2)?
A: 230 ± 70 nM

Q: And the IC50 (A375; read-out: IC50 A375 No CoCl2)?
A: 150 ± 80 nM

Q: And the “SI (IC50 (HDF) / IC50 (melanoma cells)) A375 100 µM CoCl2” value (A375; [8])?
A: 2.0

Q: And the “SI (IC50 (HDF) / IC50 (melanoma cells)) A375 No CoCl2” value (A375; [9])?
A: 2.2

Q: What about the IC50 (MeWo; read-out: IC50 MeWo CoCl2) of the same molecule?
A: 470 ± 20 nM

Q: And the IC50 (MeWo; read-out: IC50 MeWo No CoCl2)?
A: 330 ± 40 nM

Q: And the “SI (IC50 (HDF) / IC50 (melanoma cells)) MeWo 100 µM CoCl2” value (MeWo; [8])?
A: 1.0

Q: And the “SI (IC50 (HDF) / IC50 (melanoma cells)) MeWo No CoCl2” value (MeWo; [9])?
A: 1.0

Q: With CC(=O)Nc1ccc(-c2c3nc(c(-c4ccc[n+](C)c4)c4ccc([nH]4)c(-c4ccc[n+](C)c4)c4nc(c(-c5ccc[n+](C)c5)c5ccc2[nH]5)C=C4)C=C3)cc1.[Cl-].[Cl-].[Cl-] [TMPyP3-CH3, 5-(4-Acetamidophenyl)-10,15,20-Tris(N-Methylpyridinium-3-Yl)Porphyrin Trichloride] as the molecule, how does the ΦISC [1] read?
A: 0.34

Q: And the “τT (lifetime of 3PS*)” value [1]?
A: 0.77 ms

Q: What about the “ΦFL (fluorescence quantum yield)” value [3] of the same molecule?
A: 0.072

Q: And the IC50 (HDF; read-out: IC50 HDF CoCl2)?
A: > 100000 nM

Q: What about the IC50 (HDF; read-out: IC50 HDF No CoCl2) of the same molecule?
A: > 100000 nM

Q: And the IC50 (A375; read-out: IC50 A375 CoCl2)?
A: > 100000 nM

Q: What about the IC50 (A375; read-out: IC50 A375 No CoCl2) of the same molecule?
A: > 100000 nM

Q: What about the IC50 (MeWo; read-out: IC50 MeWo CoCl2) of the same molecule?
A: > 100000 nM

Q: What about the IC50 (MeWo; read-out: IC50 MeWo No CoCl2) of the same molecule?
A: > 100000 nM

Q: Which results are given for CC(=O)Nc1ccc(-c2c3nc(c(-c4ccc[n+]([O-])c4)c4ccc([nH]4)c(-c4ccc[n+]([O-])c4)c4nc(c(-c5ccc[n+]([O-])c5)c5ccc2[nH]5)C=C4)C=C3)cc1 [TOPyP3-CH3, 5-(4-Acetamidophenyl)-10,15,20-tris(1-oxido-3-pyridyl)porphyrin]?
A: contribution of τ1 (% of the decay) [4]: 2%; contribution of τ2 (% of the decay) [4]: 98%; τFL, longer decay time τ2 [4]: 8.62 ± 0.02 ns and 8.62 ns; τFL, short decay time τ1 [4]: 0.82 ± 0.08 ns and 0.82 ns; phototoxicity / reduction of proliferation at 1 µM ([2]; 1 µM, irradiation 643 nm, normoxia or CoCl2-induced hypoxia): did not appear to reduce the proliferation; ε Qx (0-0) [5]: 1900 M⁻¹ cm⁻¹; ε Qx (1-0) [5]: 5800 M⁻¹ cm⁻¹; ε Qy (0-0) [5]: 5200 M⁻¹ cm⁻¹; ε Qy (1-0) [5]: 18200 M⁻¹ cm⁻¹; ε Soret (B) [5]: 346900 M⁻¹ cm⁻¹; λabs Qx (0-0) [5]: 645 nm; λabs Qx (1-0) [5]: 588 nm; λabs Qy (0-0) [5]: 545 nm; λabs Qy (1-0) [5]: 510 nm; λabs Soret (B) [5]: 416 nm; IC50 (HDF; 6 h incubation, red light 643 nm 30 min, 3.6 J/cm^2, 100 μM CoCl2 at least 2 h before porphyrin, read-out: IC50 HDF CoCl2): > 100000 nM; IC50 (HDF; 6 h incubation, red light 643 nm 30 min, 3.6 J/cm^2, normoxia, read-out: IC50 HDF No CoCl2): > 100000 nM; IC50 (A375; 6 h incubation, red light 643 nm 30 min, 3.6 J/cm^2, 100 μM CoCl2 at least 2 h before porphyrin, read-out: IC50 A375 CoCl2): > 100000 nM; IC50 (A375; 6 h incubation, red light 643 nm 30 min, 3.6 J/cm^2, normoxia, read-out: IC50 A375 No CoCl2): > 100000 nM; IC50 (MeWo; 6 h incubation, red light 643 nm 30 min, 3.6 J/cm^2, 100 μM CoCl2 at least 2 h before porphyrin, read-out: IC50 MeWo CoCl2): > 100000 nM; IC50 (MeWo; 6 h incubation, red light 643 nm 30 min, 3.6 J/cm^2, normoxia, read-out: IC50 MeWo No CoCl2): > 100000 nM; τT (lifetime of 3PS*) [6]: 1.1 ms; τT (lifetime of the triplet excited state) ([6]; N2-purged, 25 °C): 1100 ± 200 μs; kq (O2) (quenching rate constant of the triplet excited state by O2) ([6]; Stern–Volmer): 1.3e+09 M⁻¹ s⁻¹; ΦISC (quantum yield of intersystem crossing) ([6]; comparative method with TPP, estimated): 0.66; εT-T (molar absorption coefficient of the triplet state) ([6]; singlet depletion method): 47 000 M^−1cm^−1; ΦFL (fluorescence quantum yield) ([7]; N2-purged, TPP as reference): 0.050 ± 0.002; λFL Q(0,0) ([7]; excitation at Soret band): 648 nm; λFL Q(0,1) ([7]; excitation at Soret band): 713 nm
